Patent US8158628B2, “Sulfonylated 1,2,3,4-tetrahydropyrrolo[1,2-a]pyrazine compounds and their use as pharmaceuticals” (Gruenenthal GmbH, priority 2009, dated 2012)

Target: T1, B1R of the rat (Rattus norvegicus, UniProt P97583)
T1 construct: expressed in transfected cells; host or cells: CHO K1 cells (Chinese hamster ovary), stably transfected
T1 sequence (P97583 1-337): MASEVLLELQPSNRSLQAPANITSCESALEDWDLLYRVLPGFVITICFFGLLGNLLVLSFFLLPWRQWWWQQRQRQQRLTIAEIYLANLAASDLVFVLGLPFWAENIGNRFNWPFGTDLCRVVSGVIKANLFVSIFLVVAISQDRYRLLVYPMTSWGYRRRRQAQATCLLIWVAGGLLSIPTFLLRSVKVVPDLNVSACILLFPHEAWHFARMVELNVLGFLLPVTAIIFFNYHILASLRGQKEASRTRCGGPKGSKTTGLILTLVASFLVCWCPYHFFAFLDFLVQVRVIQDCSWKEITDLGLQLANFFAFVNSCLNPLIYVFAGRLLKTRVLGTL
Assay: FLIPR Ca2+ functional assay, B1R antagonism, rat B1R in CHO K1 cells
Assay type: cell-based
Conditions: test substance 10 μM; rB1R CHO K1 cells; agonist Des-Arg9 bradykinin at EC80; % of maximum achievable inhibition
In short: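 Stably transfected CHO K1 cells loaded with Fluo-4; Ca2+ fluorescence read on FLIPR (ex 488/em 540 nm). Compound preincubated 10-20 min, then agonist at EC80: Lys-Des-Arg9 bradykinin (human) or Des-Arg9 bradykinin (rat). % inhibition vs maximal inhibition; IC50 from concentration series, n=2-3, N>=2.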

inhibition at 10 µM	Compound
109%	Cc1cccc(Cl)c1S(=O)(=O)N1CCn2cccc2C1COCC(=O)N1CCC2(CC1)CCN(c1ccncc1)C2 (centres unmarked) [Example 14, 2-((2-(2-Chloro-6-methylphenylsulfonyl)-1,2,3,4-tetrahydropyrrolo[1,2-a]pyrazin-1-yl)methoxy)-1-(2-(pyridin-4-yl)-2,8-diazaspiro[4.5]decan-8-yl)ethanone]
69.5%	Cc1cccc(Cl)c1S(=O)(=O)N1CCn2cccc2C1CC(=O)NC1CCN(Cc2ccccc2)C1 (centres unmarked) [Example 157, N-(1-Benzyl-pyrrolidin-3-yl)-2-[2-[(2-chloro-6-methyl-phenyl)sulfonyl]-1,2,3,4-tetrahydro-pyrrolo[1,2-a]pyrazin-1-yl]-acetamide]
-12.5%	Cc1cccc(Cl)c1S(=O)(=O)N1CCn2cccc2C1CC(=O)N1CCN(c2ncc(C(F)(F)F)cc2Cl)CC1 (centres unmarked) [Example 262, 2-[2-[(2-Chloro-6-methyl-phenyl)sulfonyl]-1,2,3,4-tetrahydro-pyrrolo[1,2-a]pyrazin-1-yl]-1-[4-[3-chloro-5-(trifluoromethyl)-pyridin-2-yl]-piperazin-1-yl]-ethanone]
46.8%	COc1cc(C)c(S(=O)(=O)N2CCn3cccc3C2CC(=O)N2CCN(Cc3ccc(C)cc3)CC2)c(C)c1 (centres unmarked) [Example 241, 2-[2-[(4-Methoxy-2,6-dimethyl-phenyl)sulfonyl]-1,2,3,4-tetrahydro-pyrrolo[1,2-a]pyrazin-1-yl]-1-[4-(p-tolyl-methyl)-piperazin-1-yl]-ethanone]

Continued, molecule first:

Compound	inhibition at 10 µM
O=C(CC1c2cccn2CCN1S(=O)(=O)c1ccccc1)N1CCC(O)(c2cccnc2)CC1 (centres unmarked) [Example 167, 2-[2-(Benzenesulfonyl)-1,2,3,4-tetrahydro-pyrrolo[1,2-a]pyrazin-1-yl]-1-(4-hydroxy-4-pyridin-3-yl-piperidin-1-yl)-ethanone]	0.145%
CN1CCN(C2CCN(C(=O)CC3c4cccn4CCN3S(=O)(=O)c3ccccc3)CC2)CC1 (centres unmarked) [Example 177, 2-[2-(Benzenesulfonyl)-1,2,3,4-tetrahydro-pyrrolo[1,2-a]pyrazin-1-yl]-1-[4-(4-methyl-piperazin-1-yl)-piperidin-1-yl]-ethanone]	-1.9%
O=C(CC1c2cccn2CCN1S(=O)(=O)c1ccccc1)N1CCN(c2ncc(C(F)(F)F)cc2Cl)CC1 (centres unmarked) [Example 265, 2-[2-(Benzenesulfonyl)-1,2,3,4-tetrahydro-pyrrolo[1,2-a]pyrazin-1-yl]-1-[4-[3-chloro-5-(trifluoromethyl)-pyridin-2-yl]-piperazin-1-yl]-ethanone]	17.9%
COc1cc(C)c(S(=O)(=O)N2CCn3cccc3C2CC(=O)N2CCC(CCN3CCCCC3)CC2)c(C)c1 (centres unmarked) [Example 146, 2-[2-[(4-Methoxy-2,6-dimethyl-phenyl)sulfonyl]-1,2,3,4-tetrahydro-pyrrolo[1,2-a]pyrazin-1-yl]-1-[4-(2-piperidin-1-yl-ethyl)-piperidin-1-yl]-ethanone]	73.5%
O=C(CC1c2cccn2CCN1S(=O)(=O)c1ccccc1)N1CCN(c2ccccc2)CC1 (centres unmarked) [Example 174, 2-[2-(Benzenesulfonyl)-1,2,3,4-tetrahydro-pyrrolo[1,2-a]pyrazin-1-yl]-1-(4-phenyl-piperazin-1-yl)-ethanone]	28%
Cc1cc(S(=O)(=O)N2CCn3cccc3C2CC(=O)N(C)C(CN2CCN(C)CC2)c2ccccc2)c(C)cc1Cl (centres unmarked) [Example 230, 2-[2-[(4-Chloro-2,5-dimethyl-phenyl)sulfonyl]-1,2,3,4-tetrahydro-pyrrolo[1,2-a]pyrazin-1-yl]-N-methyl-N-[2-(4-methyl-piperazin-1-yl)-1-phenyl-ethyl]-acetamide]	5.28%
COc1cc(C)c(S(=O)(=O)N2CCn3cccc3C2CC(=O)N2CCN(Cc3ccccc3F)CC2)c(C)c1 (centres unmarked) [Example 243, 1-[4-[(2-Fluorophenyl)-methyl]-piperazin-1-yl]-2-[2-[(4-methoxy-2,6-dimethyl-phenyl)sulfonyl]-1,2,3,4-tetrahydro-pyrrolo[1,2-a]pyrazin-1-yl]-ethanone]	29.4%
